# According to patent US9968649B2, “Vasopressin formulations for use in treatment of hypotension” (Par Pharmaceutical, Inc., priority 2015, dated 2018):
# Values joined by “and” are separate entries in the source; they are usually repeats but may differ in a detail not shown here. Identical values can stand only once.
# Test: Effect of temperature on vasopressin formulations: HPLC vasopressin assay and impurities on storage (Example 8)
# Assay type: physicochemical
# Method: To analyze degradation products of vasopressin that can be present in an illustrative formulation of vasopressin, gradient HPLC was performed to separate vasopressin from related peptides and formulation components. TABLE 2 below depicts the results of the experiment detailing the chemical formula, relative retention time (RRT), molar mass, and structure of vasopressin and detected impurities.
# Vasopressin was detected in the eluent using UV absorbance. The concentration of vasopressin in the sample was determined by the external standard method, where the peak area of vasopressin in sample injections was compared to the peak area of vasopressin reference standards in a solution of known concentration. The concentrations of related peptide impurities in the sample were also determined using the external standard method, using the vasopressin reference standard peak area and a unit relative response factor. An impurities marker solution was used to determine the relative retention times of identified related peptides at the time of analysis.
# To test the effect of temperature on the stability of vasopressin formulation, solutions containing 20 units/mL vasopressin and chlorobutanol, adjusted to pH 3.5 with acetic acid, were prepared. One mL of each vasopressin formulations was then filled into 3 cc vials. Each Vasopressin Formulation was stored either inverted or upright for at least three months, up to 24 months, at: (i) 5° C.; (ii) 25° C. and 60% relative humidity; or (iii) 40° C. and 75% humidity, and the amount of vasopressin (U/mL) and % total impurities were measured periodically. TABLES 7-12 below display the results of the experiments at 5° C. The results of the experiments at 25° C. are included in TABLES 13-18. All of the experiments were performed in triplicate. The results of the experiments at 40° C. are included in TABLES 19-24. For each temperature tested, three lots of the vasopressin formulation were stored for 24 months (5° C. and 25° C.) and 3 months (40° C.), and measurements were taken at regular intervals during the testing periods. “NMT” as used in the tables denotes “not more than.”
# Experiments were also conducted on the same samples above over the course of the experiments to measure the amount of individual impurities in the samples, pH of the samples, chlorobutanol content, particulate matter, antimicrobial effectiveness, and bacterial endotoxin levels (TABLES 25-42). (NR=no reading; ND=not determined; UI=unidentified impurity).
# [1] = Upright, 40° C. (75% humidity), 1 month
# [2] = Upright, 40° C. (75% humidity), 2 months
# [3] = Upright, 40° C. (75% humidity), 3 months
# [4] = Upright, 40° C. (75% humidity), Initial
# [5] = inverted, 5° C., 1 month, listed as AVP
# [6] = inverted, 5° C., 2 months, listed as AVP
# [7] = inverted, 5° C., 3 months, listed as AVP
# [8] = inverted, 5° C., 6 months, listed as AVP
# [9] = inverted, 5° C., 9 months, listed as AVP
# [10] = inverted, 5° C., 12 months, listed as AVP
# [11] = inverted, 5° C., 18 months, listed as AVP
# [12] = inverted, 5° C., 24 months, listed as AVP
compound,measurement,setting,value
"NC(=O)CC[C@@H]1NC(=O)[C@H](Cc2ccccc2)NC(=O)[C@H](Cc2ccc(O)cc2)NC(=O)[C@@H](N)CSSC[C@@H](C(=O)N2CCC[C@H]2C(=O)N[C@@H](CCCN=C(N)N)C(=O)NCC(N)=O)NC(=O)[C@H](CC(N)=O)NC1=O [Vasopressin, Cyclo (1-6) L-Cysteinyl-L-Tyrosyl-L-Phenylalanyl-L-Glutaminyl-L-Asparaginyl-L-Cysteinyl-L-Prolyl-L-Arginyl-L-Glycinamide]",effect of upright or inverted storage position on stability,,did not markedly affect the stability
same,Total Impurities,[1],3.6% and 3.5%
same,Vasopressin Assay,[1],18.9 U/mL and 19.2 U/mL
same,Total Impurities,[2],7.2%
same,Vasopressin Assay,[2],18.5 U/mL and 18.7 U/mL and 18.3 U/mL
same,Total Impurities,[3],10.3%
same,Vasopressin Assay,[3],17.2 U/mL and 17.4 U/mL and 17.5 U/mL
same,Total Impurities,[4],1.1% and 1.3%
same,Vasopressin Assay,[4],19.8 U/mL and 20.1 U/mL and 19.9 U/mL
same,Related Substances: Acetyl-AVP,"inverted, 5° C., 1 month",0.2% and 0.3%
same,Related Substances: Asp5-AVP,"inverted, 5° C., 1 month",0.1%
same,Related Substances: SEQ ID NO.: 2,"inverted, 5° C., 1 month",0.5%
same,Related Substances: SEQ ID NO.: 4,"inverted, 5° C., 1 month",0.6% and 0.5%
same,Related Substances: SEQ ID NO.: 10,"inverted, 5° C., 1 month",0.3%
same,Related Substances: UI-0.75-0.78,"inverted, 5° C., 1 month",0.2%
same,Related Substances: UI-0.83-0.84,"inverted, 5° C., 1 month",0.1%
same,Related Substances: UI-1.02-1.03,"inverted, 5° C., 1 month",0.2%
same,Related Substances: UI-1.03,"inverted, 5° C., 1 month",0.2%
same,Vasopressin (AVP) Assay,"inverted, 5° C., 1 month",19.4 U/mL and 19.7 U/mL
same,Total Impurities,[5],2.0% and 2.2% and 1.9%
same,Vasopressin (AVP) Assay,[5],19.4 U/mL and 19.7 U/mL
same,Related Substances: Acetyl-AVP,"inverted, 5° C., 2 months",0.3%
same,Related Substances: Asp5-AVP,"inverted, 5° C., 2 months",0.1%
same,Related Substances: SEQ ID NO.: 2,"inverted, 5° C., 2 months",0.6% and 0.5%
same,Related Substances: SEQ ID NO.: 4,"inverted, 5° C., 2 months",0.6% and 0.5%
same,Related Substances: SEQ ID NO.: 10,"inverted, 5° C., 2 months",0.3%
same,Related Substances: UI-0.75-0.78,"inverted, 5° C., 2 months",0.2%
same,Related Substances: UI-0.83-0.84,"inverted, 5° C., 2 months",0.1%
same,Related Substances: UI-0.84,"inverted, 5° C., 2 months",0.1%
same,Related Substances: UI-1.02-1.03,"inverted, 5° C., 2 months",0.2%
same,Related Substances: UI-1.03,"inverted, 5° C., 2 months",0.2%
same,Related Substances: UI-2.05,"inverted, 5° C., 2 months",0.1%
same,Vasopressin (AVP) Assay,"inverted, 5° C., 2 months",19.4 U/mL and 19.7 U/mL and 19.6 U/mL
same,Total Impurities,[6],2.1% and 2.3% and 2.0%
same,Vasopressin (AVP) Assay,[6],19.4 U/mL and 19.7 U/mL and 19.6 U/mL
same,Related Substances: Acetyl-AVP,"inverted, 5° C., 3 months",0.3%
same,Related Substances: Asp5-AVP,"inverted, 5° C., 3 months",0.1%
same,Related Substances: SEQ ID NO.: 2,"inverted, 5° C., 3 months",0.6% and 0.5%
same,Related Substances: SEQ ID NO.: 4,"inverted, 5° C., 3 months",0.7% and 0.6%
same,Related Substances: SEQ ID NO.: 10,"inverted, 5° C., 3 months",0.4%
same,Related Substances: UI-0.75-0.78,"inverted, 5° C., 3 months",0.2%
same,Related Substances: UI-1.02-1.03,"inverted, 5° C., 3 months",0.3%
same,Related Substances: UI-1.03,"inverted, 5° C., 3 months",0.3%
same,Related Substances: UI-1.76,"inverted, 5° C., 3 months",0.1%
same,Vasopressin (AVP) Assay,"inverted, 5° C., 3 months",19.3 U/mL and 19.7 U/mL
same,Total Impurities,[7],2.3% and 2.4% and 2.2%
same,Vasopressin (AVP) Assay,[7],19.3 U/mL and 19.7 U/mL
same,Related Substances: Acetyl-AVP,"inverted, 5° C., 6 months",0.2% and 0.3%
same,Related Substances: Asp5-AVP,"inverted, 5° C., 6 months",0.1%
same,Related Substances: SEQ ID NO.: 2,"inverted, 5° C., 6 months",0.6% and 0.5%
same,Related Substances: SEQ ID NO.: 4,"inverted, 5° C., 6 months",0.7% and 0.6%
same,Related Substances: SEQ ID NO.: 10,"inverted, 5° C., 6 months",0.3%
same,Related Substances: UI-0.83-0.84,"inverted, 5° C., 6 months",0.1%
same,Related Substances: UI-1.02-1.03,"inverted, 5° C., 6 months",0.2%
same,Related Substances: UI-1.03,"inverted, 5° C., 6 months",0.2%
same,Vasopressin (AVP) Assay,"inverted, 5° C., 6 months",19.5 U/mL and 19.9 U/mL and 19.8 U/mL
same,Total Impurities,[8],2.2% and 2.1% and 2.0%
same,Vasopressin (AVP) Assay,[8],19.5 U/mL and 19.9 U/mL and 19.8 U/mL
same,Related Substances: Acetyl-AVP,"inverted, 5° C., 9 months",0.2% and 0.3%
same,Related Substances: Asp5-AVP,"inverted, 5° C., 9 months",0.1%
same,Related Substances: SEQ ID NO.: 2,"inverted, 5° C., 9 months",0.6%
same,Related Substances: SEQ ID NO.: 4,"inverted, 5° C., 9 months",0.7%
same,Related Substances: SEQ ID NO.: 10,"inverted, 5° C., 9 months",0.3%
same,Related Substances: UI-0.75-0.78,"inverted, 5° C., 9 months",0.1%
same,Related Substances: UI-1.02-1.03,"inverted, 5° C., 9 months",0.2%
same,Related Substances: UI-1.03,"inverted, 5° C., 9 months",0.2%
same,Vasopressin (AVP) Assay,"inverted, 5° C., 9 months",19.4 U/mL and 19.7 U/mL
same,Total Impurities,[9],2.3% and 2.1%
same,Vasopressin (AVP) Assay,[9],19.4 U/mL and 19.7 U/mL
same,Related Substances: Acetyl-AVP,"inverted, 5° C., 12 months",0.3%
same,Related Substances: Asp5-AVP,"inverted, 5° C., 12 months",0.2% and 0.1%
same,Related Substances: SEQ ID NO.: 2,"inverted, 5° C., 12 months",0.7% and 0.6%
same,Related Substances: SEQ ID NO.: 4,"inverted, 5° C., 12 months",0.8% and 0.7%
same,Related Substances: SEQ ID NO.: 10,"inverted, 5° C., 12 months",0.4%
same,Related Substances: UI-0.75-0.78,"inverted, 5° C., 12 months",0.2%
same,Related Substances: UI-1.02-1.03,"inverted, 5° C., 12 months",0.3%
same,Related Substances: UI-1.03,"inverted, 5° C., 12 months",0.3%
same,Vasopressin (AVP) Assay,"inverted, 5° C., 12 months",19.5 U/mL and 19.8 U/mL and 19.9 U/mL
same,Total Impurities,[10],2.6% and 2.7% and 2.4%
same,Vasopressin (AVP) Assay,[10],19.5 U/mL and 19.8 U/mL and 19.9 U/mL
same,Related Substances: Acetyl-AVP,"inverted, 5° C., 18 months",0.3%
same,Related Substances: Asp5-AVP,"inverted, 5° C., 18 months",0.2%
same,Related Substances: SEQ ID NO.: 2,"inverted, 5° C., 18 months",0.8%
same,Related Substances: SEQ ID NO.: 4,"inverted, 5° C., 18 months",0.9% and 0.8%
same,Related Substances: SEQ ID NO.: 10,"inverted, 5° C., 18 months",0.4%
same,Related Substances: UI-0.75-0.78,"inverted, 5° C., 18 months",0.2%
same,Related Substances: UI-1.02-1.03,"inverted, 5° C., 18 months",0.3%
same,Related Substances: UI-1.03,"inverted, 5° C., 18 months",0.3%
same,Vasopressin (AVP) Assay,"inverted, 5° C., 18 months",19.4 U/mL and 19.7 U/mL and 19.8 U/mL
same,Total Impurities,[11],2.9% and 2.6%
same,Vasopressin (AVP) Assay,[11],19.4 U/mL and 19.7 U/mL and 19.8 U/mL
same,Related Substances: Acetyl-AVP,"inverted, 5° C., 24 months",0.3%
same,Related Substances: Asp5-AVP,"inverted, 5° C., 24 months",0.2%
same,Related Substances: SEQ ID NO.: 2,"inverted, 5° C., 24 months",0.9% and 0.8%
same,Related Substances: SEQ ID NO.: 4,"inverted, 5° C., 24 months",1.0% and 0.9%
same,Related Substances: SEQ ID NO.: 10,"inverted, 5° C., 24 months",0.3%
same,Related Substances: UI-0.75-0.78,"inverted, 5° C., 24 months",0.2%
same,Related Substances: UI-0.83-0.84,"inverted, 5° C., 24 months",0.1%
same,Related Substances: UI-1.02-1.03,"inverted, 5° C., 24 months",0.3% and 0.2%
same,Related Substances: UI-1.03,"inverted, 5° C., 24 months",0.2%
same,Related Substances: UI-1.67,"inverted, 5° C., 24 months",0.2%
same,Vasopressin (AVP) Assay,"inverted, 5° C., 24 months",19.3 U/mL and 19.5 U/mL
same,Total Impurities,[12],2.9% and 2.8%
same,Vasopressin (AVP) Assay,[12],19.3 U/mL and 19.5 U/mL
